Measurements reported in the supplement of paper PMC4862054.

How the values were obtained:
Details in all cases: incubation time: 72 h
[1] = system: HDQ-P1; experiment: normalised response (% of control), CellTiter-Glo; higher = more viable cells (100 = DMSO, 0 = benzethonium chloride kill control)
How it was run: (§1)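 A 20 µl suspension of breast cancer cells was seeded into each well of 384-well plates containing compound at 5 concentrations in 10-fold steps over a compound-specific 10,000-fold range. After 72 h incubation, CellTox Green fluorescence (485/520 nm) was read first, and CellTiter-Glo luminescence was read after 10 min at room temperature. Each plate was normalised against 0.1 % DMSO (100) and a positive kill control (0), and each value is the normalised signal at one concentration.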

[2] = system: BT-474; experiment: as above
How it was run: as §1

[3] = system: Hs578T; experiment: as above
How it was run: as §1

[4] = system: CAL-85-1; experiment: as above
How it was run: as §1

[5] = system: BT-549; experiment: as above
How it was run: as §1

[6] = system: HCC1599; experiment: as above
How it was run: as §1

[7] = system: MDA-MB-231; experiment: as above
How it was run: as §1

[8] = system: MDA-MB-468; experiment: as above
How it was run: as §1

[9] = system: HCC1937; experiment: as above
How it was run: as §1

[10] = system: DU-4475; experiment: as above
How it was run: as §1

[11] = system: MFM-223; experiment: as above
How it was run: as §1

[12] = system: MDA-MB-453; experiment: as above
How it was run: as §1

[13] = system: SK-BR-3; experiment: as above
How it was run: as §1

[14] = system: MDA-MB-436; experiment: as above
How it was run: as §1

[15] = system: MCF-10A; experiment: as above
How it was run: as §1

[16] = system: CAL-148; experiment: as above
How it was run: as §1

[17] = system: CAL-120; experiment: as above
How it was run: as §1

[18] = system: HCC1143; experiment: as above
How it was run: as §1

[19] = system: CAL-51; experiment: as above
How it was run: as §1

[20] = system: HDQ-P1; experiment: normalised viability (% of control), CellTiter-Blue; higher = more viable cells (100 = DMSO, 0 = benzethonium chloride kill control)
How it was run: (§2)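 Plates were quality-checked by Z'-factor and normalised to vehicle (100) and a positive kill control (0). The underlying assay incubated breast cancer cell lines for 72 h on 384-well plates with compound, then added 2.5 µl CellTiter-Blue for 2 h at 37 °C and read at 560/590 nm. The value is normalised viability at a single listed concentration of the series.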

[21] = system: BT-474; experiment: as above
How it was run: as §2

[22] = system: Hs578T; experiment: as above
How it was run: as §2

[23] = system: CAL-85-1; experiment: as above
How it was run: as §2

[24] = system: BT-549; experiment: as above
How it was run: as §2

[25] = system: HCC1599; experiment: as above
How it was run: as §2

[26] = system: MDA-MB-231; experiment: as above
How it was run: as §2

[27] = system: MDA-MB-468; experiment: as above
How it was run: as §2

[28] = system: HCC1937; experiment: as above
How it was run: as §2

[29] = system: DU-4475; experiment: as above
How it was run: as §2

[30] = system: MFM-223; experiment: as above
How it was run: as §2

[31] = system: MDA-MB-453; experiment: as above
How it was run: as §2

[32] = system: SK-BR-3; experiment: as above
How it was run: as §2

[33] = system: MDA-MB-436; experiment: as above
How it was run: as §2

[34] = system: CAL-148; experiment: as above
How it was run: as §2

[35] = system: CAL-120; experiment: as above
How it was run: as §2

[36] = system: HCC1143; experiment: as above
How it was run: as §2

[37] = system: CAL-51; experiment: as above
How it was run: as §2

| SMILES | normalised response [1] [%] | normalised response [2] [%] | normalised response [3] [%] | normalised response [4] [%] | normalised response [5] [%] | normalised response [6] [%] | normalised response [7] [%] | normalised response [8] [%] | normalised response [9] [%] | normalised response [10] [%] | normalised response [11] [%] | normalised response [12] [%] | normalised response [13] [%] | normalised response [14] [%] | normalised response [15] [%] | normalised response [16] [%] | normalised response [17] [%] | normalised response [18] [%] | normalised response [19] [%] | normalised viability [20] [%] | normalised viability [21] [%] | normalised viability [22] [%] | normalised viability [23] [%] | normalised viability [24] [%] | normalised viability [25] [%] | normalised viability [26] [%] | normalised viability [27] [%] | normalised viability [28] [%] | normalised viability [29] [%] | normalised viability [30] [%] | normalised viability [31] [%] | normalised viability [32] [%] | normalised viability [33] [%] | normalised viability [34] [%] | normalised viability [35] [%] | normalised viability [36] [%] | normalised viability [37] [%] |
| --- | --- | --- | --- | --- | --- | --- | --- | --- | --- | --- | --- | --- | --- | --- | --- | --- | --- | --- | --- | --- | --- | --- | --- | --- | --- | --- | --- | --- | --- | --- | --- | --- | --- | --- | --- | --- | --- |
| O=NN(CCCl)C(=O)NC1CCCCC1 [Lomustine] (1 nM) | 97.2 | 101 | 106 | 97.6 | 94.2 | 105 | 97.5 | 99.3 | 94.9 | 93.9 | 97.5 | 108 | 104 | 98.2 | 107 | 94.4 | 99.1 | 105 | 91.6 | 110 | 88 | 100 | 98.8 | 107 | 109 | 97.3 | 100 | 86.3 | 102 | 83.4 | 114 | 93.6 | 109 | 107 | 91.6 | 95.2 | 108 |
| O=C(O)CC[C@H]1CC[C@@](c2cc(F)ccc2F)(S(=O)(=O)c2ccc(Cl)cc2)CC1 [MK-0752] (0.1 nM) | 97.8 | 101 | 98.7 | 99.5 | 103 | 79.3 | 104 | 102 | 100 | 97.5 | 106 | 116 | 111 | 101 | 116 | 101 | 95.5 | 102 | 68.8 | 99.9 | 119 | 106 | 100 | 117 | 103 | 99.2 | 96.7 | 84.8 | 106 | 102 | 117 | 94.4 | 109 | 106 | 88.8 | 99.7 | 98.2 |
